The target of test [1] is T1, MAPK1(ERK2) enzyme (Homo sapiens, UniProt P28482).
T1 construct: purchased Invitrogen PV3313
Description: Z-Lyte Kinase Assay of ERK2. In kind it is biochemical. The conditions noted are these: read-out: Example 18 IC50. An outline of the steps: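 FRET-based Z-LYTE assay using ERK2 kinase with Ser/Thr3 peptide; compound tested at 0.00046–1 μM final in 2% DMSO. Kinase reaction ran 1 h at 25-30° C, followed by 1 h development. The coumarin/fluorescein emission ratio (445/520 nm) gave % phosphorylation, and IC50 was fitted from inhibition relative to uninhibited control.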

Test [2] relates to p-RSK (Thr359) in colo205 cells. Kind of test: p-RSK (Thr359) Acumen Assay in Colo205. The class given is cell-based. To be noted: Homo sapiens, COLO 205, 1 hour compound incubation, read-out: Example 19 IC50. An outline of the steps: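 Colo205 cells (4000/well, seeded overnight in 10% FBS) were exposed 1 hour at 37° C to compound added from a 3–0.001 μM dilution series in 5% DMSO. Cells were then fixed, permeabilised and immunostained for p-RSK Thr359, with PI counterstain. Acumen cytometry gave the percentage of positive cells, normalised to untreated wells and 3 uM GDC0994 wells, for the IC50 fit.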

46 compounds from US12492210B2, “Tricyclic compounds and their use” (HUTCHISON MEDIPHARMA LIMITED, priority 2019, dated 2025) can be followed below.

The structures appear in SMILES notation. A value given as a limit tells only on which side of the number the result lay.

T1 sequence (P28482 whole entry): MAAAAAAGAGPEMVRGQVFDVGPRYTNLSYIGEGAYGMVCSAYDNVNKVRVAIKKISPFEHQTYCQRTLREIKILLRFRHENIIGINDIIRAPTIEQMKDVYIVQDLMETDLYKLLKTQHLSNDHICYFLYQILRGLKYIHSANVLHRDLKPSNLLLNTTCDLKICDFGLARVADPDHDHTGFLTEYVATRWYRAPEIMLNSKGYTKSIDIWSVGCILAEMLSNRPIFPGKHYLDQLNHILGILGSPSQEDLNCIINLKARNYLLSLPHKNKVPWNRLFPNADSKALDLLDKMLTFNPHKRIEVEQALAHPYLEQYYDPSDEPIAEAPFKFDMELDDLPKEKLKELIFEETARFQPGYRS

By IC50 is commonly meant the concentration needed to halve the response being measured. Take `Cn1nccc1Nc1cc(-c2cc3n(c2)CCCn2c-3nnc2C2(C(F)F)CC(F)(F)C2)c(Cl)cn1` [Compound 120]: the IC50 in test [1] was no more than 5 nM; in test [2], no more than 100 nM.

Regarding `Cn1nccc1Nc1cc(-c2cc3n(c2)CCCn2c-3nnc2[C@H](O)C2CCCCC2)c(Cl)cn1` [Compound 24], the IC50 is 5 to 10 nM in test [1] and greater than 100 nM in test [2].

`Cn1nccc1Nc1cc(-c2cc3n(c2)CC2(CC2)n2c-3nnc2C2(C(F)(F)F)CCC2)c(Cl)cn1` [Compound 259]: the IC50 in test [1] was 5 to 10 nM; in test [2] it was no more than 100 nM.

Take `Cn1nccc1Nc1cc(-c2cc3n(c2)C[C@H](CF)n2c-3nnc2C(F)(F)c2ccccc2)c(Cl)cn1` [Compound 137]: the values for the IC50 in test [1] and in test [2] were greater than 10 nM and no more than 100 nM, respectively.

Consider `Cc1cnc(Nc2ccnn2C)nc1-c1cc2n(c1)C[C@H](CF)n1c-2nnc1C(F)(F)n1cc(Cl)cn1` [Compound 156], for which the IC50 in test [1] was no more than 5 nM; in test [2], no more than 100 nM.

For `Cc1cnc(Nc2ccnn2C)cc1-c1cc2n(c1)C[C@H](CF)n1c-2nnc1C(F)(F)c1sccc1Cl` [Compound 195], the results for the IC50 in test [1] and in test [2] were no more than 5 nM and no more than 100 nM, respectively.

On to `Cn1nccc1Nc1nccc(-c2cn3c(c2F)-c2nnc(COc4ccccc4F)n2CCC3)n1` [Compound 246], for which the IC50 in test [1] was no more than 5 nM; in test [2], no more than 100 nM.

Take `Cc1cnc(Nc2ccnn2C)nc1-c1cc2n(c1)CCn1c-2nnc1C(F)(F)c1ccccc1F` [Compound 70]: the values for the IC50 in test [1] and in test [2] were no more than 5 nM and no more than 100 nM, respectively.

Regarding `Cc1cnc(Nc2ccnn2C)cc1-c1cc2n(c1)C(C)CCn1c-2nnc1C1(C(F)(F)F)CCC1` (centres unmarked) [Compound 77], the IC50 in test [1] was no more than 5 nM; in test [2], no more than 100 nM.

Take `Cn1nccc1Nc1cc(-c2cc3n(c2)C[C@H](Cc2ccccc2)n2c-3nnc2C2(C(F)(F)F)CCC2)c(Cl)cn1` [Compound 210]: the figures for the IC50 in test [1] and in test [2] were greater than 10 nM and greater than 100 nM, respectively.

Turning to `Cn1nccc1Nc1cc(-c2cc3n(c2)C[C@H](CF)n2c-3nnc2C(F)(F)n2cc(Cl)cn2)c(F)cn1` [Compound 164], the IC50 in test [1] is no more than 5 nM; in test [2] it was no more than 100 nM.

As to `Cc1cnc(Nc2ccnn2C)cc1-c1cc2n(c1)CC1(COC1)Cn1c-2nnc1C1(C(F)(F)F)CCC1` [Compound 306], the IC50 in test [1] is no more than 5 nM; in test [2] it was no more than 100 nM.

As for `CCc1cnc(Nc2ccnn2C)cc1-c1cc2n(c1)C[C@H](OC)Cn1c-2nnc1C1(C(F)(F)F)CCC1` [Compound 147], the values for the IC50 in test [1] and in test [2] were no more than 5 nM and greater than 100 nM, respectively.

Turning to `Cc1cnc(Nc2ccnn2C)cc1-c1cc2n(c1)CC1(CCC1)n1c-2nnc1C(F)(F)C(F)F` [Compound 242], the IC50 in test [1] was 5 to 10 nM; in test [2], greater than 100 nM.

On to `Cn1nccc1Nc1cc(-c2cc3n(c2)CCCn2c(Cn4cc(Cl)cn4)nnc2-3)c(Cl)cn1` [Compound 73], for which the results for the IC50 in test [1] and in test [2] were no more than 5 nM and greater than 100 nM, respectively.

On to `Cn1nccc1Nc1cc(-c2cc3n(c2)CCCn2c-3nnc2C2(C(F)F)CCCC2)c(Cl)cn1` [Compound 81], for which the IC50 in test [1] was no more than 5 nM; in test [2], no more than 100 nM.

Consider `CCC(F)(F)c1nnc2n1[C@@H](CF)Cn1cc(-c3cc(Nc4ccnn4C)ncc3Cl)cc1-2` [Compound 61], for which the IC50 in test [1] is no more than 5 nM; in test [2] it was no more than 100 nM.

As for `C[C@@H](CO)Nc1cc(-c2cc3n(c2)CCCn2c-3nnc2C2(C(F)(F)F)CCC2)c(Cl)cn1` [Compound 229, (S)-2-((5-chloro-4-(3-(1-(trifluoromethyl)cyclobutyl)-6,7-dihydro-5H-pyrrolo[1,2-a][1,2,4]triazolo[3,4-c][1,4]diazepin-10-yl)pyridin-2-yl)amino)propan-1-ol], the IC50 in test [1] is no more than 5 nM; in test [2], no more than 100 nM.

With `Cc1cnc(Nc2ccnn2C)cc1-c1cc2n(c1)C[C@H](CF)n1c-2nnc1C(F)(F)Oc1ccccc1F` [Compound 170], the IC50 in test [1] is greater than 10 nM; in test [2] it was greater than 100 nM.

For the compound `Cc1cn2cc(-c3ccnc(Nc4ccnn4C)n3)cc2c2nnc(C3(C(F)(F)F)CCC3)n12` [Compound 232], the figures for the IC50 in test [1] and in test [2] were no more than 5 nM and no more than 100 nM, respectively.

As for `COC[C@H]1Cn2cc(-c3cc(Nc4ccnn4C)ncc3Cl)cc2-c2nnc(C(F)(F)C(F)F)n21` [Compound 301], the IC50 in test [1] is no more than 5 nM; in test [2] it was greater than 100 nM.

`Cn1nccc1Nc1cc(-c2cc3n(c2)CCCn2c(COCC(F)(F)F)nnc2-3)c(Cl)cn1` [Compound 25]: the IC50 in test [1] was no more than 5 nM; in test [2] it was greater than 100 nM.

On to `Cn1nccc1Nc1nccc(-c2cc3n(c2)CCn2c(COc4ccccc4F)nnc2-3)n1` [Compound 3], for which the IC50 in test [1] was no more than 5 nM; in test [2], no more than 100 nM.

Take `Cn1nccc1Nc1cc(-c2cc3n(c2)CCCn2c(Nc4ccccc4F)nnc2-3)c(Cl)cn1` [Compound 43]: the figures for the IC50 in test [1] and in test [2] were 5 to 10 nM and no more than 100 nM, respectively.

`Cn1nccc1Nc1nccc(-c2cc3n(c2)C[C@H](CF)n2c-3nnc2C(F)(F)c2ccccc2F)n1` [Compound 100]: the IC50 in test [1] is no more than 5 nM; in test [2] it was no more than 100 nM.

On to `Cn1nccc1Nc1cc(-c2cc3n(c2)CCn2c-3nnc2C2(C(F)F)CCC2)c(Cl)cn1` [Compound 46], for which the IC50 is no more than 5 nM in test [1] and no more than 100 nM in test [2].

Consider `Cn1nccc1Nc1cc(-c2cc3n(c2)CCCn2c-3nnc2C2(C(F)(F)F)CCC2)c(Cl)cn1` [Compound 30], for which the IC50 in test [1] was no more than 5 nM; in test [2] it was no more than 100 nM.

For `Cn1nccc1Nc1cc(-c2cc3n(c2)CC(F)(F)Cn2c-3nnc2C2(C#N)CCC2)c(Cl)cn1` [Compound 74], the IC50 in test [1] is no more than 5 nM; in test [2], no more than 100 nM.

For the compound `CCCn1nccc1Nc1ncc(C)c(-c2cc3n(c2)C[C@H](C)n2c-3nnc2C(F)(F)c2ccccc2F)n1` [Compound 291], the IC50 in test [1] is greater than 10 nM; in test [2], no more than 100 nM.

On to `Cc1cnc(Nc2ccnn2C)cc1-c1cc2n(c1)C[C@H](CF)n1c-2nnc1C(F)(F)c1noc2ccccc12` [Compound 197], for which the 50% inhibitory concentration (IC50) is 5 to 10 nM in test [1] and greater than 100 nM in test [2].

As for `Cn1nccc1Nc1cc(-c2cc3n(c2)CC2(CCC2)Cn2c-3nnc2C2(C(F)(F)F)CCC2)c(Cl)cn1` [Compound 55, 5-chloro-N-(1-methyl-1H-pyrazol-5-yl)-4-(3′-(1-(trifluoromethyl)cyclobutyl)-5′H,7′H-spiro[cyclobutane-1,6′-pyrrolo[1,2-a][1,2,4]triazolo[3,4-c][1,4]diazepin]-10′-yl)pyridin-2-amine], the IC50 in test [1] is 5 to 10 nM; in test [2], no more than 100 nM.

In the case of `Cn1nccc1Nc1cc(-c2cc3n(c2)C[C@H](C(F)F)n2c-3nnc2C(F)(F)n2cc(Cl)cn2)c(Cl)cn1` [Compound 209], the IC50 in test [1] is 5 to 10 nM; in test [2], no more than 100 nM.

`Cn1nccc1Nc1cc(-c2cc3n(c2)C[C@H](F)Cn2c-3nnc2C2(C(F)(F)F)CCC2)c(Cl)cn1` [Compound 123]: the figures for the IC50 in test [1] and in test [2] were no more than 5 nM and no more than 100 nM, respectively.

Turning to `Cc1cnc(Nc2ccnn2C)nc1-c1cc2n(c1)C[C@H](C)n1c-2nnc1C(F)(F)c1ccccc1F` [Compound 88], the IC50 in test [1] is no more than 5 nM; in test [2], no more than 100 nM.

As to `Cc1cnc(Nc2ccnn2C)nc1-c1cc2n(c1)C[C@H](C)n1c-2nnc1C(F)(F)c1ccccc1Cl` [Compound 125], the IC50 in test [1] is 5 to 10 nM; in test [2], no more than 100 nM.

For `Cc1cnc(Nc2ccnn2C)cc1-c1cc2n(c1)C[C@H](CF)n1c-2nnc1C(F)(F)n1ccc(F)n1` [Compound 104], the values for the IC50 in test [1] and in test [2] were no more than 5 nM and no more than 100 nM, respectively.

Take `Cn1nccc1Nc1cc(-c2cc3n(c2)CCn2c(COc4ccccc4F)nnc2-3)c(Cl)cn1` [Compound 23]: the values for the concentration for half-maximal inhibition (IC50) in test [1] and in test [2] were 5 to 10 nM and no more than 100 nM, respectively.

Take `Cc1cnccc1Nc1ncc(C)c(-c2cc3n(c2)CCCn2c-3nnc2C2(C(F)(F)F)CCC2)n1` [Compound 286]: the IC50 in test [1] is 5 to 10 nM; in test [2], no more than 100 nM.

With `Cn1nccc1Nc1cc(-c2cc3n(c2)C[C@H](CF)n2c-3nnc2C(F)(F)c2ncccc2F)c(Cl)cn1` [Compound 194], the IC50 in test [1] is no more than 5 nM; in test [2], no more than 100 nM.

For `Cc1cnc(Nc2ccnn2CCCO)nc1-c1cc2n(c1)C[C@H](C)n1c-2nnc1C(F)(F)c1ccccc1F` [Compound 297], the results for the IC50 in test [1] and in test [2] were greater than 10 nM and no more than 100 nM, respectively.

In the case of `Cc1cnc(Nc2ccnn2C)nc1-c1cc2n(c1)C[C@H](C)n1c-2nnc1C(F)(F)c1cc(F)ccc1F` [Compound 134], the IC50 in test [1] was 5 to 10 nM; in test [2], no more than 100 nM.

On to `Cc1cnc(Nc2ccnn2C)nc1-c1cc2n(c1)C[C@H](C)n1c-2nnc1C(F)(F)n1cc(Cl)cn1` [Compound 102], for which the IC50 in test [1] was no more than 5 nM; in test [2] it was no more than 100 nM.

Take `Cc1c(-c2ccnc(Nc3ccnn3C)n2)cn2c1-c1nnc(COc3ccccc3F)n1CCC2` [Compound 16]: the IC50 in test [1] was no more than 5 nM; in test [2] it was no more than 100 nM.

On to `Cc1cnc(Nc2ccnn2C(F)F)nc1-c1cc2n(c1)C[C@H](C)n1c-2nnc1C(F)(F)c1ccccc1F` [Compound 187], for which the figures for the IC50 in test [1] and in test [2] were greater than 10 nM and no more than 100 nM, respectively.

Turning to `Cn1nccc1Nc1cc(-c2cc3n(c2)C[C@H](CF)n2c-3nnc2C(F)(F)c2ccccc2F)c(Cl)cn1` [Compound 190], the IC50 in test [1] is greater than 10 nM; in test [2], no more than 100 nM.

Turning to `CCC(F)(F)c1nnc2n1[C@@H](CF)Cn1cc(-c3cc(Nc4ccnn4C)ncc3C)cc1-2` [Compound 57], the concentration for half-maximal inhibition (IC50) in test [1] was no more than 5 nM; in test [2] it was greater than 100 nM.
